In PubChem BioAssay (NCI) one finds TGI and GI50 data, which are given here for 18 compounds.

Common to all, as to test: DTP human tumour cell line panel, 48 h
Assay [1] relates to RXF-631 renal.
Assay [2] has as its system DMS 114 small cell lung.
The subject of assay [3] is HOP-18 NSCLC.
Assay [4] relates to DLD-1 colon.
Assay [5] relates to XF 498 CNS.
Assay [6] relates to M19-MEL melanoma.
The test system of assay [7] is LXFL 529 NSCLC.
The subject of assay [8] is KM20L2 colon.
The test system of assay [9] is MDA-N.

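Five compound concentrations were applied to cells in 96-well plates for 48 hours; endpoints were derived by simple linear interpolation of the resulting dose-response curve. GI50 is the concentration that inhibits growth by half. TGI: concentration producing complete growth inhibition.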

By TGI is commonly meant the concentration giving total growth inhibition. On to `CCOC(=O)c1c(C(F)(F)F)oc2c1ccc1nc3nonc3nc12`, for which the total growth inhibition concentration (TGI) in assay [1] was 37.6 µM; in assay [2], 55.9 µM; in assay [3], 26 µM; in assay [4], 28.6 µM; in [5], 30.8 µM; in [6] it was 38.2 µM. Also, the total growth inhibition concentration (TGI) in assay [7] amounted to 27.2 µM; in [8], 36.5 µM.

On to `O=C(/C=C/c1ccc(Cl)c(Cl)c1)C1CCC(Cl)CC1` (stereo unspecified), for which the TGI is 33.8 µM in assay [1]; 30.7 µM in assay [2]; 58.1 µM in assay [3]; 29.8 µM in assay [4]; 33 µM in [5]; 31.7 µM in [6]. Also, the TGI in assay [7] worked out at 32.3 µM; in assay [8], 46.7 µM.

As to `CC(C)NC(=O)O/N=C1\CCC2[C@@H]3CC=C4C[C@@H](OC(=O)NC(C)C)CC[C@]4(C)C3CC[C@]12C` (stereo partly specified), the TGI in assay [1] is 3.57 µM; in [2], 1.98 µM; in [3], 4.67 µM; in assay [4] it was > 25.3 µM; in assay [6], 2.81 µM; in assay [7], 2.13 µM. Moreover, in assay [8], the TGI came out at 9.59 µM.

Consider `O=C1c2ccccc2C(=O)c2sc(Nc3ccc(Cl)c(Cl)c3)nc21`, for which the TGI in assay [1] came to 31.4 µM; in assay [2], 3.26 µM; in assay [3], 14.3 µM; in [4], 4.66 µM; in [5], 6.04 µM; in [6] it was 2.44 µM. Besides, the TGI was 3.53 µM in assay [7] and 41.7 µM in assay [8].

Regarding `O=C1CCC(=O)C(C(=O)CCC(=O)Nc2cccc(Cl)c2)C1` (stereo unspecified), the TGI in assay [3], in assay [4], in [5], in assay [6], in assay [7] and in [8] was > 100 µM each time.

As to `OC1C2C=CCC1CCC2` (stereo unspecified), the TGI in assay [1], in assay [2], in [3], in assay [4], in assay [5] and in assay [6] was > 100 µM in each case. Besides, the TGI in [8] was > 100 µM.

For `O=P1(O)c2ccccc2CS(=O)(=O)Cc2ccccc21`, the TGI in assay [9] is > 100 µM.

For the compound `COC(=O)C(=O)C1CCCCC(C2=NC3NN=C(N)N3C2=O)C1=O` (stereo unspecified), the TGI in assay [1], in assay [2], in [3], in [4], in assay [5] and in [6] was > 100 µM in each case. Also, the TGI in [7] and in assay [8] was > 100 µM each time.

Take `OC(c1ccccc1)c1c(-c2ccccc2)oc(-c2ccccc2)c1C(O)c1ccccc1` (stereo unspecified): the TGI in [9] worked out at 24.6 µM.

As to `O=C1C2Nc3ccccc3SC2C(=O)N1c1cccc([N+](=O)[O-])c1` (stereo unspecified), the concentration for total growth inhibition (TGI) in assay [1], in [2], in [4], in assay [5], in [6] and in [7] was > 100 µM in each case. For the same compound, the TGI in [8] was > 100 µM.

For `c1cnc2c(c1)Nc1cnncc1S2`, the TGI in [9] was > 100 µM.

`O=C1c2cccc3cc([N+](=O)[O-])cc(c23)C(=O)N1O`: the TGI in assay [9] is > 100 µM.

`C=C1CC(C/C=C(\C)CC2CC(=C)C(=O)O2)OC1=O` (stereo unspecified): the TGI in assay [1], in assay [2], in assay [3], in [4], in [5] and in assay [6] was > 100 µM in each case. In addition, the TGI in assay [7] and in assay [8] was > 100 µM in each case.

With `Cc1cccc(N=C2NC(=O)C(CC(=O)Nc3ccc(Cl)cc3C)S2)c1` (stereo unspecified), the TGI in assay [1], in assay [2], in assay [3], in assay [4], in assay [6] and in assay [7] was > 100 µM each time. The concentration for total growth inhibition (TGI) in assay [8] was > 100 µM.

For orientation: GI50 means the concentration giving 50% growth inhibition. As for `CC(C)(C)C(=O)[CH-]C(=O)C(F)(F)C(F)(F)C(F)(F)F.CC(C)(C)C(=O)[CH-]C(=O)C(F)(F)C(F)(F)C(F)(F)F.[O-]CC1OC(O)C(O)C(O)C1O.[O-]CC1OC(O)C(O)C(O)C1O.[Ti+4]`, the GI50 in assay [2] is > 100 µM; in assay [3], > 100 µM; in assay [4], 67.4 µM; in assay [5] it was > 100 µM; in assay [6], > 100 µM; in assay [7], 71.4 µM. Further, the GI50 in [8] is > 100 µM. In addition, the TGI in assay [2], in assay [3], in assay [4], in [5], in assay [6] and in assay [7] was > 100 µM each time. For the same compound, in assay [8], the TGI is > 100 µM.

On to `O=c1[nH]c2c(O)cccc2c2cc3c(c(O)c12)OCO3`, for which the TGI in assay [2] was 75.8 µM; in assay [3] it was 0.877 µM; in assay [4], 62.4 µM; in assay [5], 56 µM; in assay [6], 93.5 µM; in assay [7], 73.1 µM. The compound further yielded a TGI in assay [8] of 40.4 µM.

As for `Cc1cc(=O)[nH]c(CNC(=O)Cc2ccccc2)n1`, the TGI in assay [2], in assay [4], in assay [5], in [6], in [7] and in assay [8] was > 100 µM in each case.

Turning to `CCOc1ccc(NC(=O)CCC(=O)NN)cc1`, the TGI in [2] was > 100 µM; in assay [3] it was > 100 µM; in [4], > 100 µM; in [5] it was 95 µM; in assay [7], > 100 µM; in assay [8] it was > 100 µM.
